Measurements from patent US20100267561A1, “HERBICIDAL PYRIDAZINONE DERIVATIVES” (priority 2007, published 2010).

What was measured:
Test in all cases: Test B pre-/postemergence plant response
Type in all cases: in vivo
[1] = tested on: blackgrass (Alopecurus myosuroides); settings: Preemergence; for Blackgrass plant response rating: 8 g ai/ha
Excerpt: (§1) Seeds of plant species selected from blackgrass (Alopecurus myosuroides), downy bromegrass (Bromus tectorum), green foxtail (Setaria viridis), Italian ryegrass (Lolium multiflorum), wheat (Triticum aestivum), wild oat (Avena fatua), catchweed bedstraw (Galium aparine), bermudagrass (Cynodon dactylon), surinam grass (Brachiaria decumbens), cocklebur (Xanthium strumarium), corn (Zea mays), large crabgrass (Digitaria sanguinalis), woolly cupgrass (Eriochloa villosa), giant foxtail (Setaria faberii), goosegrass (Eleusine indica), johnsongrass (Sorghum halepense), kochia (Kochia scoparia), lambsquarters (Chenopodium album), morningglory (Ipomoea coccinea), eastern black (E.B.) nightshade (Solanum ptycanthum), yellow nutsedge (Cyperus esculentus), pigweed (Amaranthus retroflexus), common ragweed (Ambrosia elation), Russian thistle (Salsola iberica), soybean (Glycine max), common (oilseed) sunflower (Helianthus annuus), and velvetleaf (Abutilon theophrasti) were planted and treated preemergence with test chemicals formulated in a non-phytotoxic solvent mixture which included a surfactant.
(§2) At the same time, plants selected from these crop and weed species and also winter barley (Hordeum vulgare), canarygrass (Phalaris minor), chickweed (Stellaria media) and windgrass (Apera spica-venti) were treated with postemergence applications of some of the test chemicals formulated in the same manner. Plants ranged in height from 2 to 18 cm (1- to 4-leaf stage) for postemergence treatments.
(§3) Plant species in the flooded paddy test consisted of rice (Oryza sativa), umbrella sedge (Cyperus difformis), ducksalad (Heteranthera limosa) and barnyardgrass (Echinochloa crus-galli) grown to the 2-leaf stage for testing. At time of treatment, test pots were flooded to 3 cm above the soil surface, treated by application of test compounds directly to the paddy water, and then maintained at that water depth for the duration of the test. Treated plants and controls were maintained in a greenhouse for 13 to 15 days, after which time all species were compared to controls and visually evaluated. Plant response ratings, summarized in Table B, are based on a scale of 0 to 100 where 0 is no effect and 100 is complete control. A dash (-) response means no test result.

[2] = tested on: catchweed bedstraw (Galium aparine); settings: Preemergence; for Galium plant response rating: 8 g ai/ha
Excerpt: as §1, §2, §3

[3] = tested on: common (oilseed) sunflower (Helianthus annuus); settings: Preemergence; for Sunflower plant response rating: 8 g ai/ha
Excerpt: as §1, §2, §3

[4] = tested on: common ragweed (Ambrosia elation); settings: Preemergence; for Ragweed plant response rating: 8 g ai/ha
Excerpt: as §1, §2, §3

corn (Zea mays) = settings: Preemergence; for Corn plant response rating: 8 g ai/ha
Excerpt: as §1, §2, §3

[5] = tested on: downy bromegrass (Bromus tectorum); settings: Preemergence; for Bromegrass, Downy plant response rating: 8 g ai/ha
Excerpt: as §1, §2, §3

[6] = tested on: giant foxtail (Setaria faberii); settings: Preemergence; for Foxtail, Giant plant response rating: 8 g ai/ha
Excerpt: as §1, §2, §3

[7] = tested on: lambsquarters (Chenopodium album); settings: Preemergence; for Lambsquarters plant response rating: 8 g ai/ha
Excerpt: as §1, §2, §3

[8] = tested on: pigweed (Amaranthus retroflexus); settings: Preemergence; for Pigweed plant response rating: 8 g ai/ha
Excerpt: as §1, §2, §3

[9] = tested on: velvetleaf (Abutilon theophrasti); settings: Preemergence; for Velvetleaf plant response rating: 8 g ai/ha, scale 0 to 100
Excerpt: as §1, §2, §3

wild oat (Avena fatua) = settings: Preemergence; for Oat, Wild plant response rating: 8 g ai/ha
Excerpt: as §1, §2, §3

[10] = tested on: woolly cupgrass (Eriochloa villosa); settings: Preemergence; for Cupgrass, Woolly plant response rating: 8 g ai/ha
Excerpt: as §1, §2, §3

[11] = tested on: yellow nutsedge (Cyperus esculentus); settings: Preemergence; for Nutsedge, Yellow plant response rating: 8 g ai/ha
Excerpt: as §1, §2, §3

[12] = 16 g ai/ha, scale 0 to 100 (0 no effect, 100 complete control)
[13] = 31 g ai/ha, 0 to 100 scale, 0 no effect, 100 complete control
[14] = 31 g ai/ha, scale 0 to 100 (0 no effect, 100 complete control)
[15] = 62 g ai/ha, 0 to 100 scale, 0 no effect, 100 complete control

SMILES: Cc1cc(-c2ccc(Cl)cc2)nn1-c1c(OS(=O)(=O)C(C)C)cnn(C)c1=O [Compound 50]
- Plant response rating, Blackgrass [1, 12]: 0
- Plant response rating, Blackgrass [1, 13]: 60
- Plant response rating, Blackgrass ([1]; 62 g ai/ha, scale 0 to 100): 95
- Blackgrass plant response rating ([1]; scale 0 to 100): 0
- Plant response rating, Galium [2, 12]: 0
- Galium plant response rating ([2]; scale 0 to 100): 0
- Plant response rating, Sunflower [3, 12]: 0
- Plant response rating, Sunflower [3, 14]: 0
- Plant response rating, Sunflower ([3]; 62 g ai/ha, scale 0 to 100): 20
- Sunflower plant response rating ([3]; scale 0 to 100): 0
- Plant response rating, Ragweed [4, 12]: 0
- Plant response rating, Ragweed [4, 14]: 0
- Plant response rating, Ragweed ([4]; 62 g ai/ha, scale 0 to 100): 0
- Ragweed plant response rating ([4]; scale 0 to 100): 0
- Plant response rating, Corn (corn (Zea mays); [12]): 0
- Plant response rating, Corn (corn (Zea mays); 62 g ai/ha, scale 0 to 100): 90
- Corn plant response rating (corn (Zea mays); scale 0 to 100): 0
- Plant response rating, Bromegrass, Downy [5, 12]: 0
- Plant response rating, Bromegrass, Downy [5, 13]: 0
- Plant response rating, Bromegrass, Downy ([5]; 62 g ai/ha, scale 0 to 100): 0
- Bromegrass, Downy plant response rating ([5]; scale 0 to 100): 0
- Plant response rating, Foxtail, Giant [6, 12]: 98
- Plant response rating, Foxtail, Giant [6, 13]: 100
- Plant response rating, Foxtail, Giant ([6]; 62 g ai/ha, scale 0 to 100): 100
- Foxtail, Giant plant response rating ([6]; scale 0 to 100): 20
- Plant response rating, Lambsquarters [7, 12]: 65
- Plant response rating, Lambsquarters [7, 13]: 100
- Plant response rating, Lambsquarters ([7]; 62 g ai/ha, scale 0 to 100): 100
- Lambsquarters plant response rating ([7]; scale 0 to 100): 0
- Plant response rating, Pigweed [8, 12]: 0
- Plant response rating, Pigweed [8, 14]: 0
- Plant response rating, Pigweed ([8]; 62 g ai/ha, scale 0 to 100): 0
- Pigweed plant response rating ([8]; scale 0 to 100): 0
- Plant response rating, Velvetleaf [9, 12]: 0
- Plant response rating, Velvetleaf [9, 14]: 0
- Plant response rating, Velvetleaf [9, 15]: 0
- Velvetleaf plant response rating [9]: 0
- Plant response rating, Oat, Wild (wild oat (Avena fatua); [12]): 40
- Plant response rating, Oat, Wild (wild oat (Avena fatua); [14]): 40
- Plant response rating, Oat, Wild (wild oat (Avena fatua); 62 g ai/ha, scale 0 to 100): 70
- Oat, Wild plant response rating (wild oat (Avena fatua); scale 0 to 100): 20
- Plant response rating, Cupgrass, Woolly [10, 12]: 75
- Plant response rating, Cupgrass, Woolly [10, 13]: 98
- Plant response rating, Cupgrass, Woolly ([10]; 62 g ai/ha, scale 0 to 100): 100
- Cupgrass, Woolly plant response rating ([10]; scale 0 to 100): 20
- Plant response rating, Nutsedge, Yellow [11, 12]: 0
- Plant response rating, Nutsedge, Yellow [11, 14]: 0
- Plant response rating, Nutsedge, Yellow ([11]; 62 g ai/ha, scale 0 to 100): 0
- Nutsedge, Yellow plant response rating ([11]; scale 0 to 100): 0

SMILES: Cc1ccc(-c2ccc(Cl)cc2)cc1-c1c(O)cnn(C)c1=O [Compound 46]
- Plant response rating, Blackgrass [1, 12]: 30
- Plant response rating, Blackgrass [1, 13]: 40
- Plant response rating, Blackgrass ([1]; 62 g ai/ha, scale 0 to 100): 85
- Blackgrass plant response rating ([1]; scale 0 to 100): 0
- Plant response rating, Galium [2, 12]: 0
- Plant response rating, Galium [2, 13]: 0
- Plant response rating, Galium ([2]; 62 g ai/ha, scale 0 to 100): 0
- Galium plant response rating ([2]; scale 0 to 100): 0
- Plant response rating, Sunflower [3, 12]: 0
- Plant response rating, Sunflower [3, 14]: 0
- Plant response rating, Sunflower ([3]; 62 g ai/ha, scale 0 to 100): 0
- Sunflower plant response rating ([3]; scale 0 to 100): 0
- Plant response rating, Ragweed [4, 12]: 0
- Plant response rating, Ragweed [4, 14]: 0
- Plant response rating, Ragweed ([4]; 62 g ai/ha, scale 0 to 100): 0
- Ragweed plant response rating ([4]; scale 0 to 100): 0
- Plant response rating, Corn (corn (Zea mays); [12]): 0
- Plant response rating, Corn (corn (Zea mays); [13]): 0
- Plant response rating, Corn (corn (Zea mays); 62 g ai/ha, scale 0 to 100): 0
- Corn plant response rating (corn (Zea mays); scale 0 to 100): 0
- Plant response rating, Bromegrass, Downy [5, 12]: 0
- Plant response rating, Bromegrass, Downy [5, 13]: 0
- Plant response rating, Bromegrass, Downy ([5]; 62 g ai/ha, scale 0 to 100): 5
- Bromegrass, Downy plant response rating ([5]; scale 0 to 100): 0
- Plant response rating, Foxtail, Giant [6, 12]: 15
- Plant response rating, Foxtail, Giant [6, 13]: 95
- Plant response rating, Foxtail, Giant ([6]; 62 g ai/ha, scale 0 to 100): 100
- Foxtail, Giant plant response rating ([6]; scale 0 to 100): 0
- Plant response rating, Lambsquarters [7, 12]: 0
- Plant response rating, Lambsquarters [7, 13]: 0
- Plant response rating, Lambsquarters ([7]; 62 g ai/ha, scale 0 to 100): 0
- Lambsquarters plant response rating ([7]; scale 0 to 100): 0
- Plant response rating, Pigweed [8, 12]: 0
- Plant response rating, Pigweed [8, 14]: 60
- Plant response rating, Pigweed ([8]; 62 g ai/ha, scale 0 to 100): 100
- Pigweed plant response rating ([8]; scale 0 to 100): 0
- Plant response rating, Velvetleaf [9, 12]: 0
- Plant response rating, Velvetleaf [9, 14]: 0
- Plant response rating, Velvetleaf [9, 15]: 0
- Velvetleaf plant response rating [9]: 0
- Plant response rating, Oat, Wild (wild oat (Avena fatua); [12]): 0
- Plant response rating, Oat, Wild (wild oat (Avena fatua); [14]): 0
- Plant response rating, Oat, Wild (wild oat (Avena fatua); 62 g ai/ha, scale 0 to 100): 35
- Oat, Wild plant response rating (wild oat (Avena fatua); scale 0 to 100): 0
- Plant response rating, Cupgrass, Woolly [10, 12]: 0
- Plant response rating, Cupgrass, Woolly [10, 13]: 85
- Plant response rating, Cupgrass, Woolly ([10]; 62 g ai/ha, scale 0 to 100): 98
- Cupgrass, Woolly plant response rating ([10]; scale 0 to 100): 0
- Plant response rating, Nutsedge, Yellow [11, 12]: 0
- Plant response rating, Nutsedge, Yellow [11, 14]: 0
- Plant response rating, Nutsedge, Yellow ([11]; 62 g ai/ha, scale 0 to 100): 0
- Nutsedge, Yellow plant response rating ([11]; scale 0 to 100): 0
